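Each compound was tested at five concentrations against cells in 96-well plates for 48 hours. The concentration for 50% growth inhibition is given as GI50. TGI: concentration producing complete growth inhibition.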
Tests used:
Experiment in all cases: DTP human tumour cell line panel, 48 h
786-0 renal = tested on: 786-0 renal
A498 renal = tested on: A498 renal
A549 NSCLC = tested on: A549 NSCLC
ACHN renal = tested on: ACHN renal
BT-549 breast = tested on: BT-549 breast
CAKI-1 renal = tested on: CAKI-1 renal
CCRF-CEM leukemia = tested on: CCRF-CEM leukemia
COLO 205 colon = tested on: COLO 205 colon
DU-145 prostate = tested on: DU-145 prostate
HCC-2998 colon = tested on: HCC-2998 colon
HCT-116 colon = tested on: HCT-116 colon
HCT-15 colon = tested on: HCT-15 colon
HL-60(TB) leukemia = tested on: HL-60(TB) leukemia
HOP-62 NSCLC = tested on: HOP-62 NSCLC
HOP-92 NSCLC = tested on: HOP-92 NSCLC
HS 578T breast = tested on: HS 578T breast
HT29 colon = tested on: HT29 colon
IGROV1 ovarian = tested on: IGROV1 ovarian
K-562 leukemia = tested on: K-562 leukemia
KM12 colon = tested on: KM12 colon
LOX IMVI melanoma = tested on: LOX IMVI melanoma
M14 melanoma = tested on: M14 melanoma
MALME-3M melanoma = tested on: MALME-3M melanoma
MCF7 breast = tested on: MCF7 breast
MDA-MB-231 breast = tested on: MDA-MB-231 breast
MDA-MB-435 = tested on: MDA-MB-435
MOLT-4 leukemia = tested on: MOLT-4 leukemia
NCI-H226 lung = tested on: NCI-H226 lung
NCI-H23 lung = tested on: NCI-H23 lung
NCI-H460 lung = tested on: NCI-H460 lung
NCI-H522 lung = tested on: NCI-H522 lung
NCI/ADR-RES ovarian = tested on: NCI/ADR-RES ovarian
OVCAR-3 ovarian = tested on: OVCAR-3 ovarian
OVCAR-4 ovarian = tested on: OVCAR-4 ovarian
OVCAR-5 ovarian = tested on: OVCAR-5 ovarian
OVCAR-8 ovarian = tested on: OVCAR-8 ovarian
PC-3 prostate = tested on: PC-3 prostate
RPMI-8226 leukemia = tested on: RPMI-8226 leukemia
RXF 393 renal = tested on: RXF 393 renal
SF-268 CNS = tested on: SF-268 CNS
SF-295 CNS = tested on: SF-295 CNS
SF-539 CNS = tested on: SF-539 CNS
SK-MEL-2 melanoma = tested on: SK-MEL-2 melanoma
SK-MEL-28 melanoma = tested on: SK-MEL-28 melanoma
SK-OV-3 ovarian = tested on: SK-OV-3 ovarian
SN12C renal = tested on: SN12C renal
SNB-19 CNS = tested on: SNB-19 CNS
SNB-75 CNS = tested on: SNB-75 CNS
SR leukemia = tested on: SR leukemia
SW-620 colon = tested on: SW-620 colon
TK-10 renal = tested on: TK-10 renal
U251 CNS = tested on: U251 CNS
UACC-257 melanoma = tested on: UACC-257 melanoma
UACC-62 melanoma = tested on: UACC-62 melanoma
UO-31 renal = tested on: UO-31 renal

## Cc1cc(C)c(C#N)c(SCC(=O)c2sc3c(C#N)c(C)cc(C)[n+]3c2[O-])n1
786-0 renal
  GI50: 692 nM
  TGI: > 52600 nM
A498 renal
  GI50: 135 nM
  TGI: 2070 nM
A549 NSCLC
  GI50: 474 nM
  TGI: > 100000 nM
ACHN renal
  GI50: 725 nM
  TGI: > 100000 nM
BT-549 breast
  GI50: 859 nM
  TGI: > 100000 nM
CAKI-1 renal
  GI50: 617 nM
  TGI: > 100000 nM
CCRF-CEM leukemia
  GI50: 333 nM
  TGI: > 100000 nM
COLO 205 colon
  GI50: 383 nM
  TGI: 6250 nM
DU-145 prostate
  GI50: 472 nM
HCC-2998 colon
  GI50: 867 nM
  TGI: > 100000 nM
HCT-116 colon
  GI50: 367 nM
  TGI: > 100000 nM
HCT-15 colon
  GI50: 242 nM
  TGI: > 100000 nM
HL-60(TB) leukemia
  GI50: 277 nM
  TGI: 892 nM
HOP-62 NSCLC
  GI50: 4170 nM
  TGI: > 100000 nM
HOP-92 NSCLC
  GI50: 514 nM
  TGI: > 50700 nM
HS 578T breast
  GI50: 335 nM
  TGI: > 100000 nM
HT29 colon
  GI50: 329 nM
  TGI: 1760 nM
IGROV1 ovarian
  GI50: 1100 nM
  TGI: > 100000 nM
K-562 leukemia
  GI50: 376 nM
  TGI: > 100000 nM
KM12 colon
  GI50: 401 nM
  TGI: > 100000 nM
LOX IMVI melanoma
  GI50: 750 nM
  TGI: > 100000 nM
M14 melanoma
  GI50: 309 nM
MALME-3M melanoma
  GI50: 4240 nM
  TGI: > 100000 nM
MCF7 breast
  GI50: 166 nM
  TGI: > 100000 nM
MDA-MB-231 breast
  GI50: 890 nM
  TGI: > 100000 nM
MDA-MB-435
  GI50: 97.9 nM
  TGI: 538 nM
MOLT-4 leukemia
  GI50: 596 nM
  TGI: > 100000 nM
NCI-H226 lung
  GI50: 1330 nM
  TGI: > 100000 nM
NCI-H23 lung
  GI50: 697 nM
  TGI: > 100000 nM
NCI-H460 lung
  GI50: 362 nM
  TGI: > 100000 nM
NCI-H522 lung
  GI50: 244 nM
  TGI: 692 nM
NCI/ADR-RES ovarian
  GI50: 366 nM
  TGI: 17800 nM
OVCAR-3 ovarian
  GI50: 340 nM
  TGI: 1080 nM
OVCAR-4 ovarian
  GI50: 2240 nM
  TGI: > 100000 nM
OVCAR-5 ovarian
  GI50: 607 nM
  TGI: > 100000 nM
OVCAR-8 ovarian
  GI50: 513 nM
  TGI: > 100000 nM
PC-3 prostate
  GI50: 436 nM
  TGI: > 100000 nM
RPMI-8226 leukemia
  GI50: 491 nM
  TGI: > 100000 nM
RXF 393 renal
  GI50: 238 nM
  TGI: 777 nM
SF-268 CNS
  GI50: 1130 nM
  TGI: > 100000 nM
SF-295 CNS
  GI50: 307 nM
  TGI: > 29300 nM
SF-539 CNS
  GI50: 88.1 nM
  TGI: 501 nM
SK-MEL-2 melanoma
  GI50: 624 nM
  TGI: 56200 nM
SK-MEL-28 melanoma
  GI50: 1410 nM
  TGI: > 100000 nM
SK-OV-3 ovarian
  GI50: 678 nM
  TGI: > 100000 nM
SN12C renal
  GI50: 534 nM
  TGI: > 100000 nM
SNB-19 CNS
  GI50: 504 nM
  TGI: > 100000 nM
SNB-75 CNS
  GI50: 336 nM
  TGI: > 27200 nM
SR leukemia
  GI50: 228 nM
  TGI: > 100000 nM
SW-620 colon
  GI50: 340 nM
  TGI: > 100000 nM
TK-10 renal
  GI50: 1500 nM
  TGI: > 100000 nM
U251 CNS
  GI50: 374 nM
  TGI: 98800 nM
UACC-257 melanoma
  GI50: 531 nM
  TGI: > 100000 nM
UACC-62 melanoma
  GI50: 559 nM
  TGI: > 100000 nM
UO-31 renal
  GI50: 1140 nM
  TGI: > 100000 nM

From PubChem BioAssay (NCI)
